Values of other authors in US6197304A, “Whitening cosmetics containing solvent-fractionated extracts of ramulus mori extract” (priority 1997, dated 2001).
“Also recorded” adds a separate entry of the source.

Columns and labels:
tyrosinase = details: prior art
skin = details: prior art

SMILES | tyrosinase inhibition / whitening activity (in words) (tyrosinase) | skin irritation (in words) (skin)
O=C1O[C@H]([C@@H](O)CO)C(O)=C1O [Ascorbic acid, ascorbic acid] | relatively low activity of inhibiting tyrosinase | 
O=c1cc(CO)occ1O [Comparative 3, kojic acid] | high activity; also recorded: relatively high whitening effect | 
Oc1ccc(O)cc1 [Hydroquinone, hydroquinone] |  | irritates the skin strongly
